From patent US20040076601A1, “Pharmaceutical form comprising a cell regulating factor and/or a cell proliferation promoter” (priority 2000, published 2004)

Key:
BP-A31 fibroblasts = test: MTT proliferation assay of form containing SPC (Example 7); format: cell-based, mouse; conditions: BP-A31 fibroblasts over 24 h vs untreated control; 3.1% added to the well, final theoretical SPC concentration 15 μM
Experimental: SPC was formulated in a support material containing 60% by weight of methylidene malonate oligomer and 40% by weight of methylidene malonate polymer prepared from 1-ethoxycarbonyl-1-ethoxycarbonylmethyleneoxycarbonylethene monomer (100 μg of SPC formulated per 40 mg of material, as described in Example 2). The pharmaceutical form according to the invention, containing SPC or its control solvent, was then brought into contact with BP-A31 fibroblasts according to the protocol described in Example 1. The effect of adding 3.1% to the well, generating a final theoretical SPC concentration of 15 μM, is shown here. The stimulation of cell proliferation was quantified by the MTT assay. The results, expressed as the percentage proliferation of the cells over 24 h compared with an untreated control culture, are reported in Table 6 below.

BP-A31 cells = test: Stability of the biological activity of FGF-2 after storage at 4° C., MTT assay (Example 4); format: cell-based, mouse; conditions: MTT assay 24 h, FIG. 1
Experimental: The materials used are on the one hand the three pharmaceutical forms of Example 3, in which the support material consists of different proportions by weight of methylidene malonate oligomers and polymers, and on the other hand free (non-formulated) FGF-2. After storage of the 3 pharmaceutical forms and the free FGF-2 for 7, 14 and 21 days at 4° C., the stimulating activity on cell proliferation is measured by the MTT assay described in Example 2 for 24 h compared with a control culture with no growth factor added.
The results are shown graphically in FIG. 1, in which the storage time at 4° C., expressed in days, is plotted on the abscissa and the percentage proliferation is plotted on the ordinate.

Molecule: CCCCCCCCCCCCC/C=C/[C@@H](O)[C@@H](N)COP(=O)([O-])OCC[N+](C)(C)C [Free SPC, sphingosylphosphorylcholine]
- Proliferation (%) (BP-A31 fibroblasts): 158.8 ± 3.2%

Molecule: free (non-formulated) FGF-2: free (non-formulated) basic fibroblast growth factor, human recombinant FGF-2
- stability of biological activity on storage (BP-A31 cells): rapidly losing its biological activity (after 7 days)
